In US11819532B2, “Peptide macrocycles against Acinetobacter baumannii” (Hoffmann-La Roche Inc., priority 2018, dated 2023):

Assays:
A. baumannii ATCC 17978 = experiment: 50% growth inhibitory concentration (IC50) determination, antimicrobial susceptibility testing; format: cell-based; conditions: Acinetobacter baumannii; 50% growth inhibition, A. baumannii strain ATCC17978, Iso-Sensitest medium; read-out: IC50 ATCC17978
Method: The in vitro antimicrobial activity of the compounds was alternatively determined according to the following procedure:
The assay used a 10-points Iso-Sensitest broth medium to measure quantitatively the in vitro activity of the compounds against A. baumannii ATCC 17978.
Stock compounds in DMSO were serially twofold diluted (e.g. range from 50 to 0.097 μM or from 10 to 0.020 μM final concentration) in 384 wells microtiter plates and inoculated with 49 μl the bacterial suspension in Iso-Sensitest medium to have a final cell concentration of ˜5×10^(5)CFU/ml in a final volume/well of 50 μl/well. Microtiter plates were incubated at 35±2° C.
Bacterial cell growth was determined with the measurement of optical density at X=600 nm each 20 minutes over a time course of 16h.
Growth inhibition was calculated during the logarithmic growth of the bacterial cells with determination of the concentration inhibiting 50% (IC50) and 90% (IC90) of the growth.
Table 1 provides the 50% growth inhibitory concentrations (IC50) in micromoles per liter of the compounds of present invention obtained against the A. baumannii strain ATCC17978.

[1] = Plasma precipitation screening assay; design: species or system rat; conditions: Wistar (Hanbrl:Wist SPF), rat, 10 min
Method: An aliquot (10 μL) of compound solubilized in physiological buffer or the formulation used for its parenteral administration in vivo, and of various dilutions thereof in phosphate-buffered saline (PBS), is mixed 1:1 with rat plasma. After 10 minutes incubation at room temperature the UV-absorption of the mixtures is measured and compared to absorption of blank plasma or plasma with vehicle solution. A significant (often concentration dependent) increase of absorption is indicative of precipitation.
Whole blood is obtained from WISTAR rats (Hanbrl:Wist SPF) under terminal anaesthesia after intraperitoneal injection of a pentobarbital solution (from animals euthanized for collection of tissue for other experimental purposes). Blood is collected in 1.2 mL of Heparin S-Monovette tubes (Sarstedt) for the preparation of heparin plasma.
The tubes are then centrifuged for 5 min at 5200 g at room temperature to isolate the plasma supernatant. The plasma is used in the assay within 48 h of collection (storage at 4° C.).
Test compounds are received as powder or formulated. When obtained as powder, they are solubilized in 0.9% aq. sodium chloride solution in order to get the highest indicated concentration to be tested. The solubility is visually checked and the solutions are filtered using 0.45 PVDF hydrophilic filters (Durapore®, Darmstadt, Germany), to remove possible solid impurities. pH of this initial solution might be measured in the filtered stock solutions, before proceeding to prepare a compound dilution series in PBS (1:1-dilution steps).
The assay is conducted in 384-well plates. 10 μL of rat plasma is added to 10 μL of the various compound solutions. The assay is performed in duplicate. 10 μL of vehicle (0.9% aq. sodium chloride solution, PBS) added to the plasma is used as a negative control. The absorption is measured at 362 nm.
Raw data obtained are absorbance data. The difference between absorbance of the sample and mean absorbance of vehicle is calculated. The minimal effect concentration (MEC) is defined as the lowest concentration giving an absorbance difference, OD362≥0.05.

Structure (SMILES) | IC50 (A. baumannii ATCC 17978) [nM] | Plasma precipitation MEC [1] [µmol/L]
COc1cc(-c2ccc(Cl)c3c2CNC(=O)[C@H](Cc2c[nH]c4ccccc24)N(C)C(=O)[C@H](CCCCN)NC(=O)[C@H](CCCN)NCc2nccnc2S3)ccc1C(=O)O (racemic) [Example 8.03, 2-methoxy-4-[rac-(11S,14S,17S)-14-(4-aminobutyl)-11-(3-aminopropyl)-25-chloro-17-(1H-indo1-3-ylmethyl)-16-methyl-12,15,18-trioxo-2-thia-4,7,10,13,16,19-hexazatricyclo [19.4.0.03,8]pentacosa-1(25),3(8),4,6,21,23-hexaen-22-yl]benzoic acid] | 78 | 760
CN1C(=O)[C@H](CCCCN)NC(=O)[C@H](CCCN)NCc2cccnc2Sc2c(Cl)ccc(-c3ccc(C(=O)O)c(S(C)(=O)=O)c3)c2CNC(=O)[C@@H]1Cc1c[nH]c2ccccc12 [Example 2.00, 4-[(11S,14S,17S)-14-(4-Aminobutyl)-11-(3-aminopropyl)-25-chloro-17-(1H-indol-3-ylmethyl)-16-methyl-12,15,18-trioxo-2-thia-4,10,13,16,19-pentazatricyclo[19.4.0.03,8]pentacosa-1(25), 3(8), 4,6,21,23-hexaen-22-yl]-2-methylsulfonyl-benzoic Acid] | 73 | 950
CN1C(=O)[C@H](CCCCN)NC(=O)[C@H](CCCN)NCc2cccnc2Sc2c(Cl)ccc(-c3ccn4nc(C(=O)O)cc4c3)c2CNC(=O)[C@@H]1Cc1c[nH]c2ccccc12 [Example 2.01, 5-[(11S,14S,17S)-14-(4-aminobutyl)-11-(3-aminopropyl)-25-chloro-17-(1H-indo1-3-ylmethyl)-16-methyl-12,15,18-trioxo-2-thia-4,10,13,16,19-pentazatricyclo[19.4.0.03,8]pentacosa-1(25),3(8),4,6,21,23-hexaen-22-yl]pyrazolo[1,5-a]pyridine-2-carboxylic acid] | 20 | 820
Cc1[nH]c2ccccc2c1C[C@H]1C(=O)NCc2c(cccc2-c2ccc(C(=O)O)cc2)Sc2ncccc2CN[C@@H](CCCN)C(=O)N[C@@H](CCCCN)C(=O)N1C [Example 6.00, 4-[(11S,14S,17S)-14-(4-Aminobutyl)-11-(3-aminopropyl)-16-methyl-17-[(2-methyl-1H-indol-3-yl)methyl]-12,15,18-trioxo-2-thia-4,10,13,16,19-pentazatricyclo[19.4.0.03,8]pentacosa-1(25), 3,5,7,21,23-hexaen-22-yl]benzoic Acid] | 23 | 1090
Cc1[nH]c2ccccc2c1C[C@H]1C(=O)NCc2c(-c3ccn(CC(=O)O)c(=O)c3)ccc(Cl)c2Sc2ncccc2CN[C@@H](CCCN)C(=O)N[C@@H](CCCCN)C(=O)N1C [Example 7.01, 2-[4-[(1 S,14S,17S)-14-(4-Aminobutyl)-11-(3-aminopropyl)-25-chloro-16-methyl-17-[(2-methyl-1H-indol-3-yl)methyl]-12,15,18-trioxo-2-thia-4,10,13,16,19-pentazatricyclo[19.4.0.03,8]pentacosa-1(25), 3(8), 4,6,21,23-hexaen-22-yl]-2-oxo-1-pyridyl]acetic Acid] | 46 | 1650
CN1C(=O)[C@H](CCCCN)NC(=O)[C@H](CCCN)NCc2nccnc2Sc2c(Cl)ccc(-c3ccc(C(=O)O)c(F)c3)c2CNC(=O)[C@@H]1Cc1c[nH]c2ccccc12 [Example 8.02, 4-[(11S,14S,17S)-14-(4-aminobutyl)-11-(3-aminopropyl)-25-chloro-17-(1H-indo1-3-ylmethyl)-16-methyl-12,15,18-trioxo-2-thia-4,7,10,13,16,19-hexazatricyclo[19.4.0.03,8]pentacosa-1(21),3,5,7,22,24-hexaen-22-yl]-2-fluoro-benzoic acid] | 19 | 380
CN1C(=O)[C@H](CCCCN)NC(=O)[C@H](CCCN)NCc2cccnc2Sc2c(F)ccc(-c3ccc(C(=O)O)cc3)c2CNC(=O)[C@@H]1Cc1c[nH]c2ccccc12 [Example 9.00, 4-[(1 S,14S,17S)-14-(4-aminobutyl)-1-(3-aminopropyl)-25-fluoro-17-(1H-indol-3-ylmethyl)-16-methyl-12,15,18-trioxo-2-thia-4,10,13,16,19-pentazatricyclo[19.4.0.03,8]pentacosa-1(25), 3(8), 4,6,21,23-hexaen-22-yl]benzoic Acid] | 20 | 870
CN1C(=O)[C@H](CCCCN)NC(=O)[C@H](CCCN)NCc2cccnc2Sc2c(F)ccc(-c3ccn(CC(=O)O)c(=O)c3)c2CNC(=O)[C@@H]1Cc1c[nH]c2ccccc12 [Example 9.01, 2-[4-[(11S,14S,17S)-14-(4-Aminobutyl)-11-(3-aminopropyl)-25-fluoro-17-(1H-indo1-3-ylmethyl)-16-methyl-12,15,18-trioxo-2-thia-4,10,13,16,19-pentazatricyclo[19.4.0.03,8]pentacosa-1(25),3(8),4,6,21,23-hexaen-22-yl]-2-oxo-1-pyridyl]acetic acid] | 81 | >1690
Cc1ccc(-c2ccc(C(=O)O)cc2)c2c1Sc1ncccc1CN[C@@H](CCCN)C(=O)N[C@@H](CCCCN)C(=O)N(C)[C@@H](Cc1c[nH]c3ccccc13)C(=O)NC2 [Example 10.00, 4-[(11S,14S,17S)-14-(4-Aminobutyl)-1-(3-aminopropyl)-17-(1H-indol-3-ylmethyl)-16,25-dimethyl-12,15,18-trioxo-2-thia-4,10,13,16,19-pentazatricyclo[19.4.0.03,8]pentacosa-1(25), 3(8), 4,6,21,23-hexaen-22-yl]benzoic Acid] | 24 | 870
Cc1ccc(-c2ccn(CC(=O)O)c(=O)c2)c2c1Sc1ncccc1CN[C@@H](CCCN)C(=O)N[C@@H](CCCCN)C(=O)N(C)[C@@H](Cc1c[nH]c3ccccc13)C(=O)NC2 [Example 10.01, 2-[4-[(1S,4S,17S)-14-(4-Aminobutyl)-11-(3-aminopropyl)-17-(1H-indol-3-ylmethyl)-16,25-dimethyl-12,15,18-trioxo-2-thia-4,10,13,16,19-pentazatricyclo[19.4.0.03,8]pentacosa-1(25), 3(8), 4,6,21,23-hexaen-22-yl]-2-oxo-1-pyridyl]acetic Acid] | 78 | >1700
COc1ccc(-c2ccc(C(=O)O)cc2)c2c1Sc1ncccc1CN[C@@H](CCCN)C(=O)N[C@@H](CCCCN)C(=O)N(C)[C@@H](Cc1c[nH]c3ccccc13)C(=O)NC2 [Example 11.00, 4-[(11S,14S,17S)-14-(4-Aminobutyl)-11-(3-aminopropyl)-17-(1H-indol-3-ylmethyl)-25-methoxy-16-methyl-12,15,18-trioxo-2-thia-4,10,13,16,19-pentazatricyclo[19.4.0.03,8]pentacosa-1(25), 3(8), 4,6,21,23-hexaen-22-yl]benzoic Acid] | 71 | 1720
CN1C(=O)[C@H](CCCN)NC(=O)[C@H](CCCN)NCc2cccnc2Sc2c(F)ccc(-c3ccc(C(=O)O)nc3)c2CNC(=O)[C@@H]1Cc1c[nH]c2ccccc12 [Example 14.01, 5-[(11S,14S,17S)-11,14-bis(3-Aminopropyl)-25-fluoro-17-(1H-indol-3-ylmethyl)-16-methyl-12,15,18-trioxo-2-thia-4,10,13,16,19-pentazatricyclo[19.4.0.03,8]pentacosa-1(25), 3(8), 4,6,21,23-hexaen-22-yl]pyridine-2-carboxylic Acid] | 90 | 880
